Assay results: publication PMC11763059, “GENI as an AMPK Activator Binds α and γ Subunits and Improves the Memory Dysfunction of Alzheimer’s Disease Mouse Models via Autophagy and Neuroprotection” (Antioxidants, 2025)

Columns and labels:
natural aging AD mice [1] = assay: Behaviour tests in naturally aged mice with AD; format: in vivo
Experimental: (§1) Each group had 10 mice. GENI was dissolved in ultrapure water and administered by gavage, whereas Dor was dissolved in normal saline. The pH was adjusted to pH 5 with 0.1 M hydrochloric acid to the clarified solution and administered by intraperitoneal injection. The dosing experiment also lasted 10 weeks. Animal behavioral experiments and sampling at the end of the animal experiment were performed as described above.
The Y-maze is mainly used to study the spatial working memory ability of rodents. The Y-maze consisted of three equal-length arms (50 cm × 18 cm × 35 cm), and the angle between each two arms was 120 degrees. The mice were placed at the end of any arm of the Y-maze and allowed to explore freely for 8 min. The behavioral changes including the total number of entries and alternation (successively entering all three arms of the Y-maze once in turn) were recorded. Percentage altercation = alternation/(entries-2) × 100%. The Y-maze could effectively reflect the ability of animals to recognize and remember novel environments.
NOR was used to detect memory in rodents. We prepared a 40 × 40 × 40 cm square box, camera equipment, and behavioral analysis software. We chose three objects A, B, and C, where objects A and B were exactly the same, and object C was very different from objects A and B. After the start of the experiment, the mice were allowed to acclimate freely in the experimental apparatus for 10 min. Objects A and B were placed into the box, and the mice were allowed to explore for 5 min. We then recorded the exploration time and times. After 1 h, A and C or B and C were placed into the box. After letting the mice explore for 5 min, we recorded the exploration time of the original object and the new object. Discrimination index = exploration time of new objects/total exploration time × 100%.
The MWM installation consisted of a circular pool (120 cm in diameter and 50 cm in height), camera equipment, and a computer analysis system. In the first stage, the platform position was fixed, and mice were placed into the pool from any three of the four origins on the pool facing away from the pool wall. The time when it took for the mouse to find the platform within 120 s, called escape latency, was recorded. The training period lasted 4 days. The escape latency of the mice was recorded daily, and the average value was used as an index to evaluate the ability of learning and memory. On the 5th day, the platform was evacuated by the experimenter. The mice were placed against the platform into the water from any water entry point, and they were allowed to swim freely for 60 s. We then recorded the number of times that they crossed the platform.

[2] = biological target: T1, AMPK-s7 (γ subunit- D316A) (Rattus norvegicus, UniProt P54645+P80385, D316A); assay: SPR analysis, AMPK mutant s7; format: binding
T1 construct: His (N); made in house
T1 sequence (P54645 13-559 limits assumed): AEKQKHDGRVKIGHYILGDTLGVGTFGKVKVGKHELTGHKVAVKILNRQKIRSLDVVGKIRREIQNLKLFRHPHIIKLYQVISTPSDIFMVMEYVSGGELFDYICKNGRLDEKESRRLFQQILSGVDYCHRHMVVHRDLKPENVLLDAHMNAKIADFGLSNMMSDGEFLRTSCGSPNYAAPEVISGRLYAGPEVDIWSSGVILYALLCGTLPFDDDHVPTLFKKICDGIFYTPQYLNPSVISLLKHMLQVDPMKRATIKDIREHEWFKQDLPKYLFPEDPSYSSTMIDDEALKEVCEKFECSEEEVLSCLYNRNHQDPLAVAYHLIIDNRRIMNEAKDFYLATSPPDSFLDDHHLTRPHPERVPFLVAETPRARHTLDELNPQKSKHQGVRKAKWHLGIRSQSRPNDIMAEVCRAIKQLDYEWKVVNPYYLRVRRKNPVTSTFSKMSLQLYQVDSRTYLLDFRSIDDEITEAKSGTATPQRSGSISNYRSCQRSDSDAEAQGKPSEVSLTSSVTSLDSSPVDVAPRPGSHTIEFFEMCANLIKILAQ
T1 sequence (P80386 whole entry partner): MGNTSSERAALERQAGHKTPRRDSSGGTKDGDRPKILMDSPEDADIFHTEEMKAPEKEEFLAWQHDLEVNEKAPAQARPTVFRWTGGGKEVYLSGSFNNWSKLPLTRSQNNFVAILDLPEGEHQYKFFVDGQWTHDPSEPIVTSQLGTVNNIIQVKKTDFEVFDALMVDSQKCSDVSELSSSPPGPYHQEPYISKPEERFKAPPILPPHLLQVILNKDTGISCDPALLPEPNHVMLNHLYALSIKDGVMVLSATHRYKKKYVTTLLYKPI
T1 sequence (P80385 whole entry D316A): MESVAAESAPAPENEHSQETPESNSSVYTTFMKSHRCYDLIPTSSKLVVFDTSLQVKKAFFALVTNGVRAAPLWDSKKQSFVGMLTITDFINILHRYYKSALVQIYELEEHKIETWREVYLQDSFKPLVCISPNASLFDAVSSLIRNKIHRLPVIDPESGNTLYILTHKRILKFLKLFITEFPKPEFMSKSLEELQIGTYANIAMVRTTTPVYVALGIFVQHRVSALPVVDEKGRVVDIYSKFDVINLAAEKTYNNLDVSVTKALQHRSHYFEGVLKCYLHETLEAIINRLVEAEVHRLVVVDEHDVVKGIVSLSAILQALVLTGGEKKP
Experimental: Mammalian AMPK subunits (His-α1, β1, and γ1) were cloned into a pET-3d vector, and protein expression and purification were similar to the literature.
SPR analysis was performed with a Biacore T200 instrument (GE Healthcare). Firstly, the purred His-tagged AMPK containing α1β1γ1 protein was captured onto an activated carboxymethylated 5 (CM5) chip using amine coupling to levels ranging from 4000 RU to 6000 RU. Secondly, GENI was dissolved in PBS-P buffer solution (0.05% (v/v) Tween 20 and PBS), and the concentration of GENI was 64 μM. Thirdly, the solution of GENI was diluted to 32 μM, 16 μM, 8 μM, 4 μM, 2 μM, 1 μM and 0.5 μM with PBS-P buffer solution. The sample was filtered by pumping through a […] membrane. A gradient concentration of GENI was injected at a flow rate of 30 μL/min in a running buffer (0.05% (v/v) Tween 20 and PBS). The data were analyzed with Biacore evaluation software (T200 version 2.0) and fitted to the 1:1 Langmuir binding model, and the kinetic parameters were derived.
The non-covalent interaction between drugs and proteins is an important way to exert drug efficacy, and its mode of action and binding affinity usually determine the utilization and biological activity of drugs. AMPK is a heterotrimer complex consisting of an α subunit containing the kinase domain and two regulatory subunits (β- and γ-). Different action sites have varied or even opposite pharmacological effects. The molecular mechanism of interaction between the protein and molecule should be investigated thoroughly. After co-incubation of GENI and AMPK, LC-MS/MS measurements were performed to predict the binding sites. As shown in Extended Data Figure S2, ASP148, ASP157 and ASP166 of the AMPK α subunits and LYS148, ASP156, LYS309, and ASP316 of the AMPK γ subunit were possible to the binding sites of GENI. […] Thus, all of these seven sites affected the binding of GENI and AMPK to varying degrees, and they were located in the C lobe kinase domain of the AMPK α subunit, and the CBS2 and CBS4 domain of the AMPK γ subunit, respectively.

natural aging AD mice [3] = assay: Immunohistochemistry and Western blot of brain in naturally aged AD mice; format: in vivo; conditions: GENI 25 mg/kg, compared with aged group
Experimental: as §1
Firstly, the three mice of each group were subjected to heart perfusion at the end of the animal experiment, and the whole brain was removed and placed in 15 mL of 4% paraformaldehyde and stored at 4 °C for 24 h. Secondly, we changed 4% paraformaldehyde into 15% sucrose solution and stored the solution at 4 °C for 24 h. We then changed the solution to 30% sucrose solution to dehydrate for 2 days. Thirdly, the mouse brain tissue was embedded in a cryo-embedding medium, and about 80 slices with a thickness of 20 μm were cut in the hippocampus using a cryostat (Thermal Fisher, Shanghai, China). The sections of mice in each group were immunohistochemically stained with primary antibodies, such as neuronal nuclear anti gen (NeuN), ionized calcium-binding adapter molecule 1 (Iba-1), inducible nitric oxide synthase (iNOS, pro-inflammatory factors), synaptophysin (Syp), and glial fibrillary acidic protein (GFAP), and secondary antibody. The product number and usage ratios of primary and secondary antibodies are detailed in Supplementary Table S4. Finally, the sections were observed under an upright two-photon confocal microscope (Olympus BX61, Tokyo, Japan) and recorded by a camera. The pictures were digitized with ImageJ software V1.8.0.112 (National Institutes of Health, Bethesda, MD, USA).
Western blot analysis for p-AMPK α, AMPK α, p-mTOR, mTOR, p-ULK1, ULK1, and LC3-I/II was conducted according to the information described in the materials and methods section of Supplementary Information.
1.3. Western blot analysis. […]
The supernatants of each group were used as protein samples. For animal samples, an appropriate amount of tissue, such as cerebral cortex and hippocampus (50–100 mg), of each group was weighed, and we added lysis buffer with 1:9 ratios. After grinding and centrifuging, the supernatants of each group were used as protein samples. The protein concentration was measured with a BCA assay kit (Beijing Cowin Biotech Company, Beijing, China). Sodium dodecyl sulphate polyacrylamide gel electrophoresis (SDS-PAGE) was used to separate proteins (15 μg), which were transferred to PVDF membranes. The membrane was incubated with primary and secondary antibodies (Supplementary Table S5 for details). Antigens were visualised using a high-sensitivity chemiluminescence detection kit (Beijing Cowin Biotech Company, Beijing, China). Bands were quantitatively measured using ImageJ software (National Institutes of Health, Bethesda, MD, USA).

`CC(C)CCOC(=O)C1=CO[C@@H](O[C@@H]2O[C@H](CO)[C@@H](O)[C@H](O)[C@H]2O)C2C(CO)=CCC12` (stereo partly shown) [GENI, Geniposidic 4-isoamyl ester] was tested, and the “escape latency, first 4 days of the training phase, water maze test” value (natural aging AD mice [1]; GENI 25 mg/kg) was “significantly reduce”, the “number of crossing platforms, fifth day, water maze test” value (natural aging AD mice [1]; GENI 25 mg/kg) was “increase” and the “cognitive function (alternating arm entry rate, novel object recognition index) in Y maze and NOR tests” value (natural aging AD mice [1]; GENI 25 mg/kg intragastrically once a day) was “improvement”. For the same compound, the Kd ([2]; SPR) was 6.46 µM, the kon ([2]; SPR, association rate, read-out: Ka) was 808 M⁻¹ s⁻¹ and the “response (RU) in SPR” value ([2]; point mutation of D316, versus wild-type) was “significantly reduced”. The “APP and Tau of hippocampus CA, DG, and cerebral cortex, Aβ and Tau phosphorylation of cerebral cortex” value (natural aging AD mice [3]) was “significantly decreased”.
